Test results: patent US20120129842A1, “BISTHIAZOLE INHIBITORS OF PRO-MATRIX METALLOPROTEINASE ACTIVATION” (priority 2010, published 2012)
Structures can show the parent of a compound that is named as a salt.

How the values were obtained:
[1] = biological target: proMMP13(1-268) (SEQ ID NO:7) (Homo sapiens, UniProt P45452); test: ThermoFluor binding assay with proMMP13(1-268); parameters: 6xHis (C); made in house; conditions: pH 7.0
Method: (§1) The ThermoFluor® (TF) assay is a 384-well plate-based binding assay that measures thermal stability of proteins (Biomol Screen 2001, 6, 429-40; Biochemistry 2005, 44, 5258-66). The experiments were carried out using instruments available from Johnson & Johnson Pharmaceutical Research & Development, LLC. TF dye used in all experiments was […] (1,8-ANS) (Invitrogen: A-47).
(§2) Compounds were arranged in a pre-dispensed plate (Greiner Bio-one: 781280), wherein compounds were serially diluted in 100% DMSO across 11 columns within a series. Columns 12 and 24 were used as DMSO reference and contained no compound. For multiple compound concentration-response experiments, the compound aliquots ([…]) were robotically predispensed directly into black 384-well polypropylene PCR microplates (Abgene: TF-0384/k) using a Cartesian Hummingbird liquid handler (DigiLab, Holliston, Mass.). Following compound dispense, protein and dye solutions were added to achieve the final assay volume of 3 μL. The assay solutions were overlayed with 1 μL of silicone oil (Fluka, type DC 200: 85411) to prevent evaporation.
(§3) Assay plates were robotically loaded onto a thermostatically controlled PCR-type thermal block and then heated from 40 to 90° C. at a ramp-rate of 1° C./min for all experiments. Fluorescence was measured by continuous illumination with UV light (Hamamatsu LC6) supplied via fiber optics and filtered through a band-pass filter (380-400 nm; >6 OD cutoff). Fluorescence emission of the entire 384-well plate was detected by measuring light intensity using a CCD camera (Sensys, Roper Scientific) filtered to detect 500±25 nm, resulting in simultaneous and independent readings of all 384 wells. A single image with 20-sec exposure time was collected at each temperature, and the sum of the pixel intensity in a given area of the assay plate was recorded vs temperature and fit to standard equations to yield the Tm (J Biomol Screen 2001, 6, 429-40).
(§4) Thermodynamic parameters necessary for fitting compound binding for each proMMP were estimated by differential scanning calorimetry (DSC) and from ThermoFluor® data. The heat capacity of unfolding for each protein was estimated from the molecular weight and from ThermoFluor® dosing data.
The proMMP13(1-268) (SEQ ID NO:7) protein sample preparations included a desalting buffer exchange step via a PD-10 gravity column (GE Healthcare). The desalting buffer exchange was performed prior to diluting the protein to the final assay concentration of 3.5 μM. The concentration of proMMP13(1-268) (SEQ ID NO:7) was estimated spectrophotometrically based on a calculated extinction coefficient of ε280=37000 M^−1cm^−1, a calculated molecular weight of 30.8 kDa, and calculated pI of 5.33. ThermoFluor® reference conditions were defined as follows: 100 μg/mL proMMP13(1-268) (SEQ ID NO:7), 25 μM 1,8-ANS, pH 7.0 Buffer (50 mM HEPES pH 7.0, 100 mM NaCl, 0.001% Tween-20, 2.5 mM MgCl2, 300 μM CaCl2). The thermodynamic parameters for proMMP13(1-268) (SEQ ID NO:7) are as follows: Tm (° C.)=67 (+/−0.1), ΔUH(Tm) (cal mol^−1)=107000(+/−5000), ΔUS(Tm) (cal mol^−1 K^−1)=318, ΔUCp (cal mol^−1 K^−1)=2600.

[2] = biological target: T1, proMMP9(67-444;ΔFnII) (SEQ ID NO:5) (Homo sapiens, UniProt P14780, DEL216-390); test: ThermoFluor binding assay with proMMP9(67-444;ΔFnII); conditions: pH 7.0
T1 construct: start methionine (N); made in house; host or cells: E. coli BL21(DE3) RIL
T1 sequence (P14780 with tags, fused parts or gaps DEL216-390): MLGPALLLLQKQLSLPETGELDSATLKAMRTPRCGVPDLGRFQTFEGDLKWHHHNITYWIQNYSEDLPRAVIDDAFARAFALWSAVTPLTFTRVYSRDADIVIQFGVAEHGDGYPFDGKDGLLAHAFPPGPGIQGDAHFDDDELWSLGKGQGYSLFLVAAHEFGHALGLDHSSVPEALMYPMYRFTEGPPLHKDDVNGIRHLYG
Method: as §1, §2, §3, §4
The protein sample preparations had to include a desalting buffer exchange step via a PD-10 gravity column (GE Healthcare). The desalting buffer exchange was performed prior to diluting the protein to the final assay concentration of 3.5 μM proMMP9(67-444;ΔFnII) (SEQ ID NO:5). The concentration of proMMP9(67-444;ΔFnII) (SEQ ID NO:5) was determined spectrophotometrically based on a calculated extinction coefficient of ε280=33900 M^−1cm^−1, a calculated molecular weight of 22.6 kDa, and calculated pI of 5.20. ThermoFluor® reference conditions were defined as follows: 80 μg/mL (3.5 μM) proMMP9(67-444;ΔFnII) (SEQ ID NO:5), 50 μM 1,8-ANS, pH 7.0 Buffer (50 mM HEPES pH 7.0, 100 mM NaCl, 0.001% Tween-20, 2.5 mM MgCl2, 300 μM CaCl2). The thermodynamic parameters for proMMP9(67-444;ΔFnII) (SEQ ID NO:5) are as follows: Tm (° C.)=63 (+/−0.1), ΔUH(Tm) (cal mol^−1)=105000(+/−5000), ΔUS(Tm) (cal mol^−1 K^−1)=[…], ΔUCp (cal mol^−1 K^−1)=2000.

[3] = biological target: T2, full-length proMMP9(1-707) (SEQ ID NO:1) (Homo sapiens, UniProt P14780, R574P); test: proMMP9/MMP3 P126 Activation Assay; format: biochemical; conditions: 20 nM proMMP9, 20 nM MMP3, 80 min 37° C.
T2 construct: made in house; host or cells: HEK293 (proMMP9, secreted); E. coli (MMP3)
Method: The reaction volume was 50 μL. […] Reactivity of residual MMP3 towards P-126 substrate was minimal under these conditions.

[4] = biological target: T3, proMMP9(20-445;ΔFnII) (SEQ ID NO:6) (Homo sapiens, UniProt P14780, DEL216-390); test: ThermoFluor binding assay with proMMP9(20-445;ΔFnII); conditions: pH 7.0
T3 construct: start methionine (N); made in house; host or cells: E. coli BL21(DE3) RIL
T3 sequence (P14780 with tags, fused parts or gaps DEL216-390): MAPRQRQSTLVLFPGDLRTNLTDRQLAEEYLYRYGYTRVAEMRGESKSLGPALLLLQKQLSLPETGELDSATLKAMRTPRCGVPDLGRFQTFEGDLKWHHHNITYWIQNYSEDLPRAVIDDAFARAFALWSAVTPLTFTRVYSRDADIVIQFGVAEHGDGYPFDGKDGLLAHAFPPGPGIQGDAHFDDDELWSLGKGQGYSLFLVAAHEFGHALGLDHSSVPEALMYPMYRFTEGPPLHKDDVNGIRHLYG
Method: as §1, §2, §3, §4
The protein sample preparations included a desalting buffer exchange step via a PD-10 gravity column (GE Healthcare). The desalting buffer exchange was performed prior to diluting the protein to the final assay concentration of 2.8 μM proMMP9(20-445;ΔFnII) (SEQ ID NO:6). The concentration of proMMP9(20-445;ΔFnII) (SEQ ID NO:6) was determined spectrophotometrically based on a calculated extinction coefficient of ε280=39880 M^−cm^−1, a calculated molecular weight of 28.2 kDa, and calculated pI of 5.5. ThermoFluor® reference conditions were define as follows: 80 μg/mL (2.8 μM) proMMP9(20-445;ΔFnII) (SEQ ID NO:6), 50 μM 1,8-ANS, pH 7.0 Buffer (50 mM HEPES pH 7.0, 100 mM NaCl, 0.001% Tween-20, 2.5 mM MgCl2, 300 μM CaCl2). The thermodynamic parameters for proMMP9(20-445;ΔFnII) (SEQ ID NO:6) are as follows: Tm (° C.)=72 (+/−0.1), ΔUH(Tm) (cal mol^−1)=160000(+/−5000), ΔUS(Tm) (cal mol^−1 K^−1)=434, ΔUCp (cal mol^−1 K^−)=2400.

T2 sequence (P14780 20-707 R574P): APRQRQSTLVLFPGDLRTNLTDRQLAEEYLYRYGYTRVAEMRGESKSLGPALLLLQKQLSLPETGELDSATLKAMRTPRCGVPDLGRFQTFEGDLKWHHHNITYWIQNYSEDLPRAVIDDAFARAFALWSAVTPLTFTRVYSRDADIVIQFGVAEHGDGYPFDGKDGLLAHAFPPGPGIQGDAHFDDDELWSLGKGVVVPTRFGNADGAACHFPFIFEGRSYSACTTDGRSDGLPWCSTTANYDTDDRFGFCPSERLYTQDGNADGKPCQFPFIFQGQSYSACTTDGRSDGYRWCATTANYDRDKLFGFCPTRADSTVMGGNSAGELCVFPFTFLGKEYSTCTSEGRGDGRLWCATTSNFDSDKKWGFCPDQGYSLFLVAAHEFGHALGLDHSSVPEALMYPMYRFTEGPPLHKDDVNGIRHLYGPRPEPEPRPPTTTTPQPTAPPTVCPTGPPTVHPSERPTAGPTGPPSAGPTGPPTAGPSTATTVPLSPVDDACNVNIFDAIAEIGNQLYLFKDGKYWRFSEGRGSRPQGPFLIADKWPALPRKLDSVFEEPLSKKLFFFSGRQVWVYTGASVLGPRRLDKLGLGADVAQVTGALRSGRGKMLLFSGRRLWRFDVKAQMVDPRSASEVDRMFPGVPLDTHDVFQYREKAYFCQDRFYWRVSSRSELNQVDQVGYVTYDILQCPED

Compound | Kd [1] [nM] | Kd [2] [nM] | IC50 [3] [nM] | Kd [4] [nM]
Cc1nc(N)sc1-c1csc(Nc2cc(C(N)=O)ccc2OC(C)C)n1 [Example 2, 3-(2′-Amino-4′-methyl-[4,5′]bithiazolyl-2-ylamino)-4-isopropoxy-benzamide.HBr] | 81 | 160 | 160 | 21
CC(=O)Nc1nc(C)c(-c2csc(Nc3cc(C(N)=O)ccc3OC(C)C)n2)s1 [Example 3, 3-(2′-Acetylamino-4′-methyl-[4,5′]bithiazolyl-2-ylamino)-4-isopropoxy-benzamide.HBr] | 300 | 300 | 130 | 410
Cc1nc(C)c(-c2nc(Nc3cc(C(N)=O)ccc3OC(C)C)sc2Br)s1 [Example 4, 3-(5-Bromo-2′,4′-dimethyl-[4,5′]bithiazolyl-2-ylamino)-4-isopropoxy-benzamide] | 3200 | 3100 | 9000 | 1200
COc1ccc(C(N)=O)cc1Nc1nc(-c2sc(N)nc2C)cs1 [Example 5, 3-(2′-Amino-4′-methyl-[4,5′]bithiazolyl-2-ylamino)-4-methoxy-benzamide.HBr] | 4900 | 560 | 850 | 270
COc1ccc(-c2ccccc2)cc1Nc1nc(-c2sc(N)nc2C)cs1 [Example 23, N^2-(4-Methoxy-biphenyl-3-yl)-4′-methyl-[4,5′]bithiazolyl-2,2′-diamine.HBr] | 980 | 15000 | – | 12000
COc1ccc(C(=O)NCCN2CCCCC2)cc1Nc1nc(-c2sc(NC(C)=O)nc2C)cs1 [Example 58, 3-(2′-Acetylamino-4′-methyl-[4,5′]bithiazolyl-2-ylamino)-4-methoxy-N-(2-piperidin-1-yl-ethyl)-benzamide.TFA] | > 95000 | 6500 | – | 19000
CCOc1ccc(-c2ncco2)cc1Nc1nc(-c2sc(NC(C)=O)nc2C)cs1 [Example 78, N-[2-(2-Ethoxy-5-oxazol-2-yl-phenylamino)-4′-methyl-[4,5′]bithiazolyl-2′-yl]-acetamide.TFA] | 2900 | 480 | – | 15000

Continued by falling Kd [1], values first:

Kd [1] [nM] | Kd [2] [nM] | IC50 [3] [nM] | Kd [4] [nM] | Compound
25000 | 2300 | – | 8600 | COc1ccc(C)cc1Nc1nc(-c2sc(N)nc2C)cs1 [Example 24, N^2-(2-Methoxy-5-methyl-phenyl)-4′-methyl-[4,5′]bithiazolyl-2,2′-diamine.HBr]
16000 | 2500 | – | 740 | COc1ccc(C(N)=O)cc1Nc1nc(-c2sc(N3CCN(C)CC3)nc2C)cs1 [Example 93, 4-Methoxy-3-[4′-methyl-2′-(4-methyl-piperazin-1-yl)-[4,5′]bithiazolyl-2-ylamino]-benzamide.TFA]
13000 | 3500 | – | 15000 | CCOC(=O)c1ccc(OCC)c(Nc2nc(-c3sc(C)nc3C)cs2)c1 [Example 82, 3-(2′,4′-Dimethyl-[4,5′]bithiazolyl-2-ylamino)-4-ethoxy-benzoic acid ethyl ester.HBr]
7800 | 2800 | – | 3000 | CNC(=O)c1ccc(OC)c(Nc2nc(-c3sc(NC(C)=O)nc3C)cs2)c1 [Example 65, 3-(2′-Acetylamino-4′-methyl-[4,5′]bithiazolyl-2-ylamino)-4-methoxy-N-methyl-benzamide.TFA]
2000 | 580 | 160 | 200 | CCOc1ccc(C(N)=O)cc1Nc1nc(-c2sc(C)nc2C)cs1 [Example 6, 3-(2′,4′-Dimethyl-[4,5′]bithiazolyl-2-ylamino)-4-ethoxy-benzamide.TFA]
1700 | 2900 | – | 9600 | CCN(CC)S(=O)(=O)c1ccc(OC)c(Nc2nc(-c3sc(N)nc3C)cs2)c1 [Example 21, 3-(2′-Amino-4′-methyl-[4,5′]bithiazolyl-2-ylamino)-N,N-diethyl-4-methoxy-benzenesulfonamide.HBr]
1400 | 340 | 260 | 89 | CCOc1ccc(C(N)=O)cc1Nc1nc(-c2sc(N)nc2C)cs1 [Example 7, 3-(2′-Amino-4′-methyl-[4,5′]bithiazolyl-2-ylamino)-4-ethoxy-benzamide]
1300 | 2900 | – | 240 | Cc1nc(C(=O)N2CCC(O)CC2)sc1-c1csc(Nc2cc(C(N)=O)ccc2OC(C)C)n1 [Example 105, 3-[2′-(4-Hydroxy-piperidine-1-carbonyl)-4′-methyl-[4,5′]bithiazolyl-2-ylamino]-4-isopropoxy-benzamide.TFA]
140 | 170 | 160 | 26 | Cc1nc(C)c(-c2csc(Nc3cc(C(N)=O)ccc3OC(C)C)n2)s1 [Example 1, 3-(2′,4′-Dimethyl-[4,5′]bithiazolyl-2-ylamino)-4-isopropoxy-benzamide.HBr]
